Values quoted from earlier work as cited in EP1017675B1, “HIGHLY LIPOPHILIC CAMPTOTHECIN DERIVATIVES” (BIONUMERIK PHARMACEUTICALS, INC., priority 1997, dated 1998).

Details: parenterally administered; fraction of the lactone form's potency

For `CC[C@@](O)(C(=O)O)c1cc2n(c(=O)c1CO)Cc1cc3ccccc3nc1-2` [carboxylate species], the “antitumor potency relative to the lactone form” value is listed as “one-tenth”.
